{"source": "patent US6743425B2", "about": "“Therapeutic agents for achondroplasia” (priority 2001, dated 2004)", "key": {"[1]": {"system": "tibiae from fetal mice", "settings": "organ cultures of tibiae from fetal mice; J. Biol. Chem. 273: 11695-11700, 1998; cited from earlier work"}, "[2]": {"system": "tibiae from the fetus of CNP-transgenic mice or their nontransgenic littermates", "assay": "organ culture of embryonic tibiae (4-d culture; longitudinal length and histology)", "format": "cell-based, mouse", "settings": "cultured tibiae from nontransgenic littermates in the presence of 10^-7 M CNP", "protocol": "Tibiae from the fetus of CNP-transgenic mice or their nontransgenic littermates were dissected out on 16.5-d post coitus and cultured for 4 days in suspension in an artificial medium. To inhibit the effect of the endogenous CNP, the tibial culture was performed with a non-peptide NP receptor antagonist, HS-142-1 (Komatsu et al., Circ Res. 78:606-614, 1996) at a concentration of 50 mg/L in the medium. At the end of the culture period, the cultured tibiae were measured for their longitudinal length, and fixed and embedded for histological analysis. Sections of 5 μm in thickness were cut from the embedded specimen and stained with Alcian blue (pH 2.5) and counterstained with hematoxylin/eosin. The cGMP contents of the cultured tibiae were measured by RIA at the end of the 4-d culture period. Glycosaminoglycan synthesis of the cultured tibiae was assessed by measuring ^35SO4 incorporation (Mericq et al., Pediatr Res 47: 189-193, 2000). Namely, cultured tibiae of the CNP-transgenic mice and their nontransgenic littermates were labeled with 5 μCi/ml Na2^35SO4 (Amersham, specific activity 100 mCi/mmol) for 1 h. […] The precipitate was washed three times with 1 ml of 0.1% cetylpyridinium chloride (Sigma Chemical Co.)—0.2 M NaCl and then dissolved in 1 ml of 23 N formic acid, after which the ^35SO4 content was determined by a liquid scintillation counter."}, "[3]": {"system": "organ cultures of tibiae from fetal mice, cultured chondrocytes and cultured osteoblasts", "settings": "cited from earlier work"}, "[4]": {"system": "p44 and p42 MAP kinases (ERK1/2)", "assay": "phosphorylation of ERK1/2 after basic FGF stimulation, Western blotting in ATDC cells", "format": "cell-based, mouse", "settings": "pretreatment for 1 h, 10^-7 CNP", "protocol": "(§1) Cells of the mouse chondrocyte strain ATDC (J. Bone. Miner. Res., 12, 1174-1188, 1997; supplied from Assistant Professor Shukunami and Professor […] of the Institute for Frontier Medical Sciences, Kyoto University) were pretreated with 1-10 ng/ml basic FGF (SIGMA), a ligand for FGFR3. Then, these cells were stimulated with 10^-9-10^-7 M CNP and assayed for intracellular cGMP production by the RIA method (cyclic GMP Assay Kit available from YAMASA CORPORATION). Phosphorylation of p44 and p42 MAP kinases (ERK1/2) and expression of […] and p44 MAP kinase (ERK1) after basic FGF stimulation were also assayed by Western blotting using phosphorylated MAP-K antibodies and MAP-K antibodies (both available from Cell Signaling Technology; MAP: mitogen-activated protein)."}, "[5]": {"system": "mouse chondrocyte strain ATDC", "assay": "intracellular cGMP production by RIA in ATDC cells after basic FGF pretreatment and CNP stimulation", "format": "cell-based", "settings": "pretreatment with 1 ng/ml basic FGF for 1 h", "protocol": "as §1"}}, "data": [{"substance": "C-type natriuretic peptide [CNP]", "values": [{"measurement": "longitudinal bone growth", "setting": "[1]", "result": "significantly promotes"}, {"measurement": "elongation of the cartilagenous primordia with enlarged extracellular matrix and increased size of hypertrophic chondrocytes", "setting": "[2]", "result": "potent"}, {"measurement": "potency in the production of cGMP compared with ANP and BNP", "setting": "[3]", "result": "more potent than ANP and BNP"}, {"measurement": "phosphorylation of ERK1/2 with basic FGF", "setting": "[4]", "result": "significantly inhibited"}]}, {"substance": "basic FGF: a ligand for FGFR3 (SIGMA)", "values": [{"measurement": "intracellular cGMP production after CNP stimulation", "setting": "[5]", "result": "70 % of control"}]}]}
